Source: patent US20230146455A1, “TREATMENT OF INFLAMMATORY DISEASES WITH PEPTIDES AND PHARMACEUTICAL COMPOSITIONS” (Yuyu Pharma, Inc., priority 2020, published 2023)
Several values for one entry are separate records, joined by “and”; a condition that tells them apart may be missing. Equal values may be shown once. Where a SMILES comes first, the peptide text is derived from it. [ ]: non-standard residue; d: D form. Hyp = O=C(O)[C@@H]1C[C@@H](O)CN1

Test system: CCL5/RANTES
Assay: Example 9 Luminex, LPS hPBMCs: CCL5/RANTES
Format: cell-based, human
Experimental: Treatment Human PBMCs were pretreated with YY-101, YDE-011 and YDE-043 or reference compound; Xiidra® at various concentration (ranging from 1 nM to 100 uM) for 2 h before stimulation. An equal volume of 0.5% DMSO was used as a vehicle control. Then, the cells were treated with LPS at 5 ug/ml. The supernatants from treated cells were harvested at 24 h and placed in a 96 well for Luminex cytokine & chemokine profiling using a Luminex 200 multiplex assay (Luminex; R&D system, USA).
The main study arm with triplicate wells per group in a 24-well plate: • 1. Blank • 2. PBMC: 0.5% DMSO • 3. PBMC+LPS (5 ug/ml) • 4. PBMC+YY-101 100 uM • 5. PBMC+YY-101 10 uM • 6. PBMC+YY-101 1 uM • 7. PBMC+YY-101 0.1 uM • 8. PBMC+YY-101 0.01 uM • 9. PBMC+LPS (5 ug/ml)+Xiidra®100 uM • 10. PBMC+LPS (5 ug/ml)+Xiidra® 10 uM • 11. PBMC+LPS (5 ug/ml)+Xiidra® 1 uM • 12. PBMC+LPS (5 ug/ml)+Xiidra®0.1 uM • 13. PBMC+LPS (5 ug/ml)+Xiidra®0.01 uM • 14. PBMC+LPS (5 ug/ml)+Xiidra®0.001 uM • 15. PBMC+LPS (5 ug/ml)+YY-101 100 uM • 16. PBMC+LPS (5 ug/ml)+YY-101 10 uM • 17. PBMC+LPS (5 ug/ml)+YY-101 1 uM • 18. PBMC+LPS (5 ug/ml)+YY-101 0.1 uM • 19. PBMC+LPS (5 ug/ml)+YY-101 0.01 uM • 20. PBMC+LPS (5 ug/ml)+YY-101 0.001 uM • 21. PBMC+LPS (5 ug/ml)+YDE-011 100 uM • 22. PBMC+LPS (5 ug/ml)+YDE-011 10 uM • 23. PBMC+LPS (5 ug/ml)+YDE-011 1 uM • 24. PBMC+LPS (5 ug/ml)+YDE-011 0.1 uM • 25. PBMC+LPS (5 ug/ml)+YDE-011 0.01 uM • 26. PBMC+LPS (5 ug/ml)+YDE-011 0.001 uM • 27. PBMC+LPS (5 ug/ml)+YDE-043 100 uM • 28. PBMC+LPS (5 ug/ml)+YDE-043 10 uM • 29. PBMC+LPS (5 ug/ml)+YDE-043 1 uM • 30. PBMC+LPS (5 ug/ml)+YDE-043 0.1 uM • 31. PBMC+LPS (5 ug/ml)+YDE-043 0.01 uM • 32. PBMC+LPS (5 ug/ml)+YDE-043 0.001 uM
Multiplex assay was used to measure 30 cytokines and chemokines. The 1:2, 1:10 and 1:200 diluted cell supernatant and serial dilution of the standard were dispensed into a 96 well plate at 50 ul/well. Then, the pre-mixed cocktail of antibody-coated magnetic beads was dispensed at 50 ul/well and incubated at room temperature for 2 h in a horizontal orbital microplate shaker at 800±500 rpm. The beads were washed using a magnetic device to prevent loss. The biotin-antibody was dispensed in 50 ul of each well and incubated at room temperature for 1 h in a shaker at 800±500 rpm. After washing, streptavidin-PE was added at 50 ul/well and incubated at room temperature for 30 min in a shaker under the same conditions. Finally, after washing, wash buffer (100 ul/well) was added to the plate and incubated in a shaker for 2 min. The Luminex™ 200 setting were set according to the manufacturer's protocol. The data was calculated with a standard five-parameter logistic nonlinear regression analysis of the data (xPonent software 4.2, USA). The levels of cytokine/chemokine are normalized to the live cell counts (1×10^5 cells/mL) and presented as concentrations per mL (pg/mL or ng/mL).

[1] = PBMC + LPS(5 ug/ml), test article 0.001 uM, Mean
[2] = PBMC + LPS(5 ug/ml), test article 0.001 uM, single replicates (1st, 2nd, 3rd)
[3] = PBMC + LPS(5 ug/ml), test article 0.01 uM, Mean
[4] = PBMC + LPS(5 ug/ml), test article 0.01 uM, single replicates (1st, 2nd, 3rd)
[5] = PBMC + LPS(5 ug/ml), test article 0.1 uM, Mean
[6] = PBMC + LPS(5 ug/ml), test article 0.1 uM, single replicates (1st, 2nd, 3rd)
[7] = PBMC + LPS(5 ug/ml), test article 1 uM, Mean
[8] = PBMC + LPS(5 ug/ml), test article 1 uM, single replicates (1st, 2nd, 3rd)
[9] = PBMC + LPS(5 ug/ml), test article 10 uM, Mean
[10] = PBMC + LPS(5 ug/ml), test article 10 uM, single replicates (1st, 2nd, 3rd)
[11] = PBMC + LPS(5 ug/ml), test article 100 uM, Mean
[12] = PBMC + LPS(5 ug/ml), test article 100 uM, single replicates (1st, 2nd, 3rd)
[13] = PBMC without LPS, test article 0.01 uM, Mean
[14] = PBMC without LPS, test article 0.01 uM, single replicates (1st, 2nd)
[15] = PBMC without LPS, test article 0.1 uM, Mean
[16] = PBMC without LPS, test article 0.1 uM, single replicates (1st, 2nd)
[17] = PBMC without LPS, test article 1 uM, Mean
[18] = PBMC without LPS, test article 1 uM, single replicates (1st, 2nd)
[19] = PBMC without LPS, test article 10 uM, Mean
[20] = PBMC without LPS, test article 10 uM, single replicates (1st, 2nd)
[21] = PBMC without LPS, test article 100 uM, Mean
[22] = PBMC without LPS, test article 100 uM, single replicates (1st, 2nd)

CC(C)C[C@H](NC(=O)CNC(=O)[C@H](CC(=O)O)NC(=O)[C@H](CCC(N)=O)NC(=O)CNC(=O)[C@@H]1C[C@@H](O)CN1)C(=O)N[C@@H](C)C(=O)NCC(=O)N1CCC[C@H]1C(=O)N[C@@H](CCCCN)C(=O)O [YY-101] (H-[Hyp]GQDGLAGPK-OH; N-terminus and C-terminus assumed)
Concentration (CCL5/RANTES) [1]: 402.3 pg/mL | MFI (Bead name: CCL5/RANTES) [1]: 1103.2 | conc/live cell (CCL5/RANTES) [1]: 62.7 pg/10^5 | Concentration (CCL5/RANTES) [2]: 407.4 pg/mL and 412.9 pg/mL and 386.6 pg/mL | MFI (Bead name: CCL5/RANTES) [2]: 1120.5 and 1139.5 and 1049.5 | conc/live cell (CCL5/RANTES) [2]: 71.5 pg/10^5 and 58.2 pg/10^5 and 58.6 pg/10^5 | Concentration (CCL5/RANTES) [3]: 454.1 pg/mL | MFI (Bead name: CCL5/RANTES) [3]: 1281.8 | conc/live cell (CCL5/RANTES) [3]: 73.6 pg/10^5 | Concentration (CCL5/RANTES) [4]: 476.2 pg/mL and 443.9 pg/mL and 442.2 pg/mL | MFI (Bead name: CCL5/RANTES) [4]: 1358.5 and 1246.5 and 1240.5 | conc/live cell (CCL5/RANTES) [4]: 74.4 pg/10^5 and 74.0 pg/10^5 and 72.5 pg/10^5 | Concentration (CCL5/RANTES) [5]: 428.0 pg/mL | MFI (Bead name: CCL5/RANTES) [5]: 1191.5 | conc/live cell (CCL5/RANTES) [5]: 73.5 pg/10^5 | Concentration (CCL5/RANTES) [6]: 432.4 pg/mL and 427.1 pg/mL and 424.5 pg/mL | MFI (Bead name: CCL5/RANTES) [6]: 1206.5 and 1188.5 and 1179.5 | conc/live cell (CCL5/RANTES) [6]: 69.7 pg/10^5 and 82.1 pg/10^5 and 68.5 pg/10^5 | Concentration (CCL5/RANTES) [7]: 430.6 pg/mL | MFI (Bead name: CCL5/RANTES) [7]: 1200.7 | conc/live cell (CCL5/RANTES) [7]: 66.2 pg/10^5 | Concentration (CCL5/RANTES) [8]: 456.2 pg/mL and 419.3 pg/mL and 416.4 pg/mL | MFI (Bead name: CCL5/RANTES) [8]: 1289.0 and 1161.5 and 1151.5 | conc/live cell (CCL5/RANTES) [8]: 72.4 pg/10^5 and 59.1 pg/10^5 and 67.2 pg/10^5 | Concentration (CCL5/RANTES) [9]: 430.1 pg/mL | MFI (Bead name: CCL5/RANTES) [9]: 1198.8 | conc/live cell (CCL5/RANTES) [9]: 65.2 pg/10^5 | Concentration (CCL5/RANTES) [10]: 422.8 pg/mL and 449.1 pg/mL and 418.4 pg/mL | MFI (Bead name: CCL5/RANTES) [10]: 1173.5 and 1264.5 and 1158.5 | conc/live cell (CCL5/RANTES) [10]: 70.5 pg/10^5 and 70.2 pg/10^5 and 55.1 pg/10^5 | Concentration (CCL5/RANTES) [11]: 336.7 pg/mL | MFI (Bead name: CCL5/RANTES) [11]: 881.7 | conc/live cell (CCL5/RANTES) [11]: 58.5 pg/10^5 | Concentration (CCL5/RANTES) [12]: 334.7 pg/mL and 330.4 pg/mL and 345.1 pg/mL | MFI (Bead name: CCL5/RANTES) [12]: 875.0 and 860.5 and 909.5 | conc/live cell (CCL5/RANTES) [12]: 53.1 pg/10^5 and 53.3 pg/10^5 and 69.0 pg/10^5 | Concentration (CCL5/RANTES) [13]: 36.8 pg/mL | MFI (Bead name: CCL5/RANTES) [13]: 52.0 | conc/live cell (CCL5/RANTES) [13]: 7.4 pg/10^5 | Concentration (CCL5/RANTES) [14]: 27.5 pg/mL and 46.1 pg/mL | MFI (Bead name: CCL5/RANTES) [14]: 37.5 and 66.5 | conc/live cell (CCL5/RANTES) [14]: 5.3 pg/10^5 and 9.6 pg/10^5 | Concentration (CCL5/RANTES) [15]: 36.2 pg/mL | MFI (Bead name: CCL5/RANTES) [15]: 50.5 | conc/live cell (CCL5/RANTES) [15]: 7.1 pg/10^5 | Concentration (CCL5/RANTES) [16]: 31.7 pg/mL and 40.7 pg/mL | MFI (Bead name: CCL5/RANTES) [16]: 43.5 and 57.5 | conc/live cell (CCL5/RANTES) [16]: 7.2 pg/10^5 and 7.0 pg/10^5 | Concentration (CCL5/RANTES) [17]: 35.3 pg/mL | MFI (Bead name: CCL5/RANTES) [17]: 49.0 | conc/live cell (CCL5/RANTES) [17]: 6.4 pg/10^5 | Concentration (CCL5/RANTES) [18]: 33.0 pg/mL and 37.6 pg/mL | MFI (Bead name: CCL5/RANTES) [18]: 45.5 and 52.5 | conc/live cell (CCL5/RANTES) [18]: 6.0 pg/10^5 and 6.8 pg/10^5 | Concentration (CCL5/RANTES) [19]: 79.0 pg/mL | MFI (Bead name: CCL5/RANTES) [19]: 136.0 | conc/live cell (CCL5/RANTES) [19]: 12.5 pg/10^5 | Concentration (CCL5/RANTES) [20]: 109.6 pg/mL and 48.3 pg/mL | MFI (Bead name: CCL5/RANTES) [20]: 201.5 and 70.5 | conc/live cell (CCL5/RANTES) [20]: 17.1 pg/10^5 and 7.9 pg/10^5 | Concentration (CCL5/RANTES) [21]: 67.1 pg/mL | MFI (Bead name: CCL5/RANTES) [21]: 107.0 | conc/live cell (CCL5/RANTES) [21]: 10.1 pg/10^5 | Concentration (CCL5/RANTES) [22]: 79.2 pg/mL and 55.0 pg/mL | MFI (Bead name: CCL5/RANTES) [22]: 131.5 and 82.5 | conc/live cell (CCL5/RANTES) [22]: 12.4 pg/10^5 and 7.9 pg/10^5
